# Tests used:
# Assay type in all cases: cell-based
# [1] = Cellular growth inhibition assay (CellTiter-Glo), Ba/F3 (Empty vector); settings: mouse, Ba/F3 cells with empty vector; Ba/F3 (Empty vector) with 10 ng/ml rmIL-3, 3 days of incubation
# Method: (§1) Example E. Cellular Growth Inhibition Assay
# (§2) Ba/F3(Empty vector) (Signosis), Ba/F3(Wild type) (Signosis), Ba/F3(L^858R+T790M) (Signosis), Ba/F3(A767_dupASV) (Signosis), Ba/F3(D770_N771insSVD) (Signosis), Ba/F3(H773_V774insNPH) (Signosis) were seeded at a density of 4000 cells per well in a CellBIND® 384-well Flat Clear Bottom Black Polystyrene Microplates (Coming, USA, Cat #3770) in 45 μl total volume of RPMI (PanEco, Cat #C330, Russia) with […] (HyClone, Cat #SV30160.03) and with 10 ng/ml rmIL-3 (RD systems, USA, Cat #403-ML-025) (for BaBF3(Empty vector)) and with 10 ng/ml rhEGF (ThermoFisher, USA, Cat #PHG0311L) (for BaCF3(Wild type)). 500× compounds solutions in DMSO (Sigma Cat #D2650) were prepared into Cmpnds plate (DiamondWell Plate, Axigen, Cat #P-384-120SQ-C—S) and DMSO only control was included. 1.l of 500× compounds (Cmpnds plate) was added to 49 µl of culture medium into Dilution plate (Diamond Well Plate, Axigen, Cat #P-384-120SQ-C—S), mixed and then 5 μl of 10× compounds solutions were transferred to cells followed by centrifugation at 100 g for 1 min. Final DMSO concentration was 0.2% o. After 3 days of incubation 10.l of CellTiter-Glo (Promega, CAT #G7572) were added to the cells, plate was centrifuged at 100 g for 1 min and luminescence signal was measured using Microplate Reader (CLARIOStar).
# [2] = test system: Ba/F3 (EGFRwt); test: Cellular growth inhibition assay (CellTiter-Glo), Ba/F3 (EGFRwt); settings: Mus musculus, BaF3, 72 h; Ba/F3 (Wild type) with 10 ng/ml rhEGF, 3 days of incubation
# Method: as §1, §2
# [3] = test system: Ba/F3 (H773_V774insSVD); test: Cellular growth inhibition assay (CellTiter-Glo), Ba/F3 (H773_V774insSVD); settings: Mus musculus, BaF3, 72 h; 3 days of incubation; read-out: Ba/F3 (H773_V774 insSVD) CC50
# [4] = test system: Ba/F3 (L858R + T790M); test: Cellular growth inhibition assay (CellTiter-Glo), Ba/F3 (L858R+T790M); settings: Mus musculus, BaF3, 72 h; 3 days of incubation
# Method: as §1, §2
# [5] = test system: Ba/F3 (A767_dupASV); test: Cellular growth inhibition assay (CellTiter-Glo), Ba/F3 (A767_dupASV); settings: Mus musculus, BaF3, 72 h; 3 days of incubation; read-out: Ba/F3 (A767_dup ASV) CC50
# Method: as §1, §2
# [6] = test system: Ba/F3 (D770_N771insSVD); test: Cellular growth inhibition assay (CellTiter-Glo), Ba/F3 (D770_N771insSVD); settings: Mus musculus, BaF3, 72 h; 3 days of incubation; read-out: Ba/F3 (D770_N771 insSVD) CC50
# Method: as §1, §2
SMILES,CC50 at 3 days [1] [nM],CC50 [2] [nM],CC50 [3] [nM],CC50 [4] [nM],CC50 [5] [nM],CC50 [6] [nM]
"COc1c(F)cccc1Nc1c2[nH]c3c1C(=O)NCC3C/C=C/COc1cccc(c1)COc1cnccc1-2 (stereo not drawn) [Compound 29, (19E)-28-[(3-Fluoro-2-methoxyphenyl)amino]-3,22-dioxa-6,11,15-triazapentacyclo[21.3.1^10,13.0^4,9.0^12,17]octacosa-1(27),4,6,8,10(28),12,19,23,25-nonaen-14-one]",> 10000,100 to 1000,1000 to 10000,1000 to 10000,100 to 1000,100 to 1000
"COc1c(F)cccc1Nc1c2[nH]c3c1C(=O)NCC3C/C=C\CCCC(=O)N1CCCC(COc3cnccc3-2)C1 (stereo not drawn) [Compound 117, 25-[(3-Fluoro-2-methoxyphenyl)amino]-7,8,9,10,14,15,18,18a,19,20-decahydro-6H-7,11-methano-22,24-methenodipyrido[3,4-b:4′,3′-f][1,5,15]oxadiazacycloicosine-12,21(13H,23H)-dione]",> 10000,100 to 1000,1000 to 10000,1000 to 10000,10 to 100,100 to 1000
"COc1c(F)cccc1Nc1c2[nH]c3c1C(=O)NCC3C/C=C/CCCC(=O)N1CCCC(COc3cnccc3-2)C1 (stereo not drawn) [Compound 118, 25-[(3-Fluoro-2-methoxyphenyl)amino]-7,8,9,10,14,15,18,18a,19,20-decahydro-6H-7,11-methano-22,24-methenodipyrido[3,4-b:4′,3′-f][1,5,15]oxadiazacycloicosine-12,21(13H,23H)-dione]",1000 to 10000,1000 to 10000,1000 to 10000,1000 to 10000,100 to 1000,1000 to 10000
"COc1c(F)cccc1Nc1c2[nH]c3c1C(=O)NCC3CCCCCCC(=O)N1CCCC(COc3cnccc3-2)C1 (stereo not drawn) [Compound 119, 25-[(3-Fluoro-2-methoxyphenyl)amino]-7,8,9,10,14,15,16,17,18,18a,19,20-dodecahydro-6H-7,11-methano-22,24-methenodipyrido[3,4-b:4′,3′-f][1,5,15]oxadiazacycloicosine-12,21(13H,23H)-dione]",> 10000,1000 to 10000,> 10000,> 10000,100 to 1000,1000 to 10000
"COc1c(F)cccc1Nc1c2[nH]c3c1C(=O)NCC3CCCCN(C)CCOc1cnccc1-2 (stereo not drawn) [Compound 127, 19-[(3-Fluoro-2-methoxyphenyl)amino]-8-methyl-6,7,8,9,10,11,12,12a,13,14-decahydro-16,18-methenodipyrido[3,4-i:4′,3′-m][1,4,11]oxadiazacyclotetradecin-15(17H)-one]",> 10000,1000 to 10000,> 10000,> 10000,1000 to 10000,> 10000
"COc1c(F)cccc1Nc1c2[nH]c3c1C(=O)NC(CC=CCOCCOc1cnccc1-2)C3 (stereo not drawn) [Compound 128, 20-(3-fluoro-2-methoxyanilino)-2,3,5,8,9,10-hexahydro-9,13-methano-12,15-(metheno)pyrido[3,4-e][1,4,8,12]dioxadiazacycloheptadecin-11(14H)-one]",> 10000,1000 to 10000,> 10000,> 10000,1000 to 10000,> 10000
"COc1c(F)cccc1Nc1c2[nH]c3c1C(=O)NCC3CCCCCCN1CCCC(COc3cnccc3-2)C1 (stereo not drawn) [Compound 129, 24-(3-fluoro-2-methoxyanilino)-7,8,9,10,13,14,15,16,17,17a,18,19-dodecahydro-6H,12H-7,11-methano-21,23-(metheno)dipyrido[3,4-b: 4′,3′-f][1,5,14]oxadiazacyclononadecin-20(22H)-one]",> 10000,100 to 1000,100 to 1000,1000 to 10000,1 to 10,10 to 100
"COc1c(F)cccc1Nc1c2[nH]c3c1C(=O)NCC3CC(=O)N1CCN(CCOc3cnccc3-2)CC1 (stereo not drawn) [Compound 131, 20-(3-fluoro-2-methoxyanilino)-6,7,9,10,13,13a,14,15-octahydro-12H-8,11-ethano-17,19-(metheno)dipyrido[3,4-j: 4′,3′-n][1,4,7,12]oxatriazacyclopentadecine-12,16(18H)-dione]",1000 to 10000,10 to 100,100 to 1000,100 to 1000,1 to 10,10 to 100
"COc1c(F)cccc1Nc1c2[nH]c3c1C(=O)NCC3CC(=O)NCC(=O)NCCCOc1cnccc1-2 (stereo not drawn) [Compound 132, 21-(3-fluoro-2-methoxyanilino)-6,7,8,9,11,12,14,14a,15,16-decahydro-18,20-(metheno)dipyrido[3,4-k: 4′,3′-o][1,5,8,13]oxatriazacyclohexadecine-10,13,17(19H)-trione]",> 10000,> 10000,> 10000,> 10000,1000 to 10000,> 10000
"COc1c(F)cccc1Nc1c2[nH]c3c1C(=O)NCC3CCCOCCN(C)CCCOc1cnccc1-2 (stereo not drawn) [Compound 145, 22-(3-fluoro-2-methoxyanilino)-9-methyl-6,7,8,9,10,11,13,14,15,15a,16,17-dodecahydro-19,21-(metheno)dipyrido[3,4-i: 4′,3′-m][1,8,4,12]dioxadiazacycloheptadecin-18(20H)-one]",> 10000,> 10000,100 to 1000,> 10000,10 to 100,10 to 100
"COc1c(F)cccc1Nc1c2[nH]c3c1C(=O)NCC3CCCCN(C(C)C)CCOc1cnccc1-2 (stereo not drawn) [Compound 159, 19-(3-fluoro-2-methoxyanilino)-8-(propan-2-yl)-6,7,8,9,10,11,12,12a,13,14-decahydro-16,18-(metheno)dipyrido[3,4-i: 4′,3′-m][1,4,11]oxadiazacyclotetradecin-15(17H)-one]",> 10000,,1000 to 10000,> 10000,100 to 1000,1000 to 10000
"COc1c(F)cccc1Nc1c2[nH]c3c1C(=O)NCC3CCCN1CC(COc3cnccc3-2)C1 (stereo not drawn) [Compound 160, 19-[(3-Fluoro-2-methoxyphenyl)amino]-7,8,10,11,12,12a,13,14-octahydro-6H-7,9-methano-16,18-methenodipyrido[3,4-b:4′,3′-f][1,5,11]oxadiazacyclotetradecin-15(17H)-one]",> 10000,,1000 to 10000,> 10000,100 to 1000,1000 to 10000
"COc1c(F)cccc1Nc1c2[nH]c3c1C(=O)NCC3CCCN1CCC(COc3cnccc3-2)C1 (stereo not drawn) [Compound 161, 20-(3-fluoro-2-methoxyanilino)-6,7,8,9,11,12,13,13a,14,15-decahydro-7,10-methano-17,19-(metheno)dipyrido[3,4-b: 4′,3′-f][1,5,11]oxadiazacyclopentadecin-16(18H)-one]",> 10000,,1000 to 10000,1000 to 10000,10 to 100,100 to 1000
"COc1c(F)cccc1Nc1c2[nH]c3c1C(=O)NCC3CCCCCCNCCOc1cnccc1-2 (stereo not drawn) [Compound 164, 21-(3-fluoro-2-methoxyanilino)-6,7,8,9,10,11,12,13,14,14a,15,16-dodecahydro-18,20-(metheno)dipyrido[3,4-k: 4′,3′-o][1,4,13]oxadiazacyclohexadecin-17(19H)-one]",> 10000,,100 to 1000,1000 to 10000,10 to 100,10 to 100
"COc1c(F)cccc1Nc1c2[nH]c3c1C(=O)NCC3CCCN1CCCC(C1)Oc1cnccc1-2 (stereo not drawn) [Compound 166, 20-(3-fluoro-2-methoxyanilino)-6,7,8,9,11,12,13,13a,14,15-decahydro-6,10-methano-17,19-(metheno)dipyrido[3,4-b: 4′,3′-f][1,5,11]oxadiazacyclopentadecin-16(18H)-one]",> 10000,,100 to 1000,1000 to 10000,1 to 10,10 to 100
"COc1c(F)cccc1Nc1c2[nH]c3c1C(=O)NC[C@@H]3CCCN1CCC[C@@H]1COc1cnccc1-2 [Compound 167, (12aR)-20-[(3-fluoro-2-methoxyphenyl)amino]-1,2,12a,13,14,15,17,18,19,19a-decahydro-12H-4,6-methenodipyrido[3,4-h:4′,3′-l]pyrrolo[2,1-c][1,4,10]oxadiazacyclotridecin-3(5H)-one]",> 10000,,100 to 1000,1000 to 10000,10 to 100,100 to 1000
